pIC50: −log10 of the molar value. Read-outs that look alike come from different tables or passages of the source.
Experiments:
MAO [1] = experiment: Inhibition of MAO - In vitro (14C p-tyramine substrate, partially purified rat brain mitochondria); type: biochemical; details: tested as hydrochloride salt, read-out: IC50 (MAO inhibitory activity - In vitro)
Text: (A) The ability of a compound of Formula I or II to inhibit MAO can be determined in vitro by the method of A. Christmas et al, Br. J. Pharmacol. 45, 490 (1972) in partially purified mitochondria from rat brain using ^14 C p-tyramine as the substrate.

MAO [2] = experiment: Time-dependence and reversibility of MAO inhibition (rat brain mitochondria, 14C p-tyramine); type: biochemical; details: phosphate buffer pH 7.2, 14C p-tyramine
Description: (B) The compounds of Formula I or II can be tested to determine whether or not the MAO inhibition follows time-dependent kinetics by the procedure described below:
Mitochondria are prepared from rat brain by homogenation in phosphate buffer (0.1 M, pH 7.2) followed by differential centrifugation. The mitochondria are suspended in the same buffer, the test compound is added at the desired concentration, and the system is incubated. At different time intervals, aliquots are taken and MAO activity is measured using ^14 C p-tyramine (a mixed substrate) as the substrate (See A. Christmas, et al, supra). When the compounds shown in Table I were tested according to the above-described procedure, the MAO inhibitory activity increased as a function of time of incubation. The initial rate of decrease of activity increased with increasing concentration of inhibitor.

MAO [3] = experiment: Inhibition of MAO - Ex vivo, rat (14C p-tyramine substrate); type: in vivo; details: for % Inhibition of MAO - Brain: 18 hr
Description: The ability of a compound of Formula I or II to inhibit MAO can be determined ex vivo by the following procedure:
The test compound is administered intraperitoneally (ip), intravenously (iv), or orally (po) to rats or mice and the animals are killed at various times after treatment. […] MAO activity is determined in the homogenates using ^14 C p-tyramine, as the substrate. […] Selectivity can be determined by repeating the above-described test using either ^14 C 5-hydroxytryptamine (for MAO-A) or ^14 C phenethylamine (for MAO-B) as the substrate for determining the % inhibition

[4] = tested on: heart rate response to p-tyramine; details: rat, in vivo, iv
Description: (§1) The following test procedure can be employed to assess the potential of a compound of Formula I or II for producing the "cheese effect":
(§2) Rats are administered an intravenous injection of the test compound at various dosage levels, and 30 minutes later the rats are challenged with several intravenous or intraduodenal dodes of p-tyramine. The heart rate response is measured.

depression = details: literature; cited from earlier work
[5] = tested on: heart rate response to p-tyramine; experiment: Cheese effect: potentiation of heart-rate response to p-tyramine in rats; details: rat, dose 0.1 (iv), p-tyramine i.d.
Description: as §1, §2

MAO-B versus MAO-A = details: literature figure; cited from earlier work
MAO-A and MAO-B = details: literature, cited from earlier work

Compound | pIC50 (MAO [1]) | time-dependent inhibitory kinetics (MAO [2]) | % Inhibition of MAO - Duodenum (MAO [3]; 0.1 mg/kg iv, 2 hr) [%] | % Inhibition of MAO - Heart (MAO [3]; 0.1 mg/kg iv, 2 hr) [%] | % Inhibition of MAO - Brain (MAO [3]; 1.0 mg/kg po) [%] | % Inhibition of MAO - Brain (MAO [3]; 5.0 mg/kg po) [%] | Potentiation of heart-rate response to p-tyramine [4] [fold] | clinical effectiveness as antidepressant (in words) (depression) | Potentiation of heart-rate response to p-tyramine [5] [fold] | Selectivity (ratio of inhibitory activity against MAO-B versus MAO-A) (MAO-B versus MAO-A) | preferential inhibition of MAO-A or MAO-B (in words) (MAO-A and MAO-B) | dose-dependence of MAO selectivity (in words) (MAO-A and MAO-B; lower vs higher dosages)
NC/C(=C\Cl)c1ccccc1 [(Z)-2-phenyl-3-chloroallylamine, (Z)-2-Phenyl-3-chloroallylamine] | 3.30 | did not show time-dependent inhibitory kinetics | – | – | – | – | – | – | – | – | – | –
C#CCN(C)CCCOc1ccc(Cl)cc1Cl [clorgyline, reference compound] | 7.00 | – | 87 | 84 | 20 | 64 | 5.2 | clinically effective antidepressant agents | 5.6 | – | – | –
C#CCN(C)Cc1ccccc1 [pargyline] | 5.70 | – | – | – | – | – | – | clinically effective antidepressant agents | – | 10 | MAO-B is preferentially inhibited | selective inhibitors at lower dosages, but are not selective inhibitors at higher dosages
